Measurements taken from patent EP4293034A1, “A NOVEL ACYLATED DERIVATE OF PHLORETIN AND ITS USE AS ANTIOXIDANT” (Consejo Superior de Investigaciones Científicas (CSIC), priority 2022, dated 2023).
≈ marks a conversion by molar mass, not a printed value. Like-named read-outs stand apart in the source and are kept apart here. Marks after values point to notes of the source that are not given here.

What was measured:
[1] = (*) data from Gonzalez-Alfonso et al, 2021, cited from earlier work; for EC50: EC50 ± SD, read-out: ABTS assay EC50; for ABTS assay TEAC: TEAC ± SD
[2] = (*) data from Gonzalez-Alfonso et al, 2021, cited from earlier work; for EC50: EC50 ± SD, read-out: DPPH assay EC50; for DPPH assay TEAC: TEAC ± SD
[3] = previously reported, Gonzalez-Alfonso et al, 2021; cited from earlier work
[4] = water, 25 °C; (*) data from Gonzalez-Alfonso et al, 2021; cited from earlier work
[5] = Antioxidant activity, DPPH assay; assay type: biochemical; settings: n = 3
Protocol: (§1) The capacity of the synthesized ester to reduce 2,2-diphenyl-1-picrylhydrazyl (DPPH) and the radical cation 2,2-azino-bis(3-ethylbenzothiazoline-6-sulfonic acid) diammonium salt (ABTS^·+) was assayed. (R)-Trolox was employed as antioxidant reference. Standard solutions with a concentration between 0 and 1000 µM for DPPH assay, and between 0 and 500 µM for ABTS assay, were prepared.

[6] = Antioxidant activity, ABTS assay; assay type: biochemical; settings: n = 3
Protocol: as §1

[7] = In vitro percutaneous absorption on Franz static diffusion cells; assay type: in vitro ADME; settings: pig skin model, 24 h exposure, Figure 5
Protocol: The study was carried out in vitro with pig biopsies placed on Franz static diffusion cells (3 mL, 1.86 cm^2 of exposed area, diameter: […], Lara-Spiral, Courtenon, France) in order to determine the distribution of active compound (API) at the different skin layers, after an exposure time of 24 hours. The pig skin, provided by the Department of Cardiology of the Hospital Clinic (Barcelona, Spain), is considered morphologically and functionally equivalent to human skin for percutaneous absorption studies. Ultra-pure water was employed as receptor fluid, and cells were placed in a thermostated water bath (32 °C) containing a magnetic stirring device to obtain the skin surface temperature at 32 ± 1 °C. The integrity of the skin samples was evaluated by measuring the transepidermal water loss (TEWL) with Tewameter TM300 (Courage & Khazaka, Cologne, Germany) considering correct TEWL values under 15 g m^-2 h^-1. […] The different samples to be analyzed (W, SC, E, D and FR) were extracted and/or diluted in methanol (Merck, Darmstadt, Germany). The phloretin, its corresponding monoglucoside and acylated monoglucoside concentrations were analyzed by HPLC, as previously described. […] The results are shown as mean values (expressed as µg/cm2) ± standard deviations. […]

Aqueous solubility = assay type: physicochemical; settings: water, 25 °C, 72 h
Protocol: The compound was incubated at 25 °C in water (saturated conditions) during 3 days under orbital stirring (1000 rpm). Then, the sample was centrifuged. A volume of 200 µL of the supernatant solution was analysed by triplicate, in a 96-well plate, using a phloretin calibration curve in methanol (0-200 µg/mL). The absorbance was measured by UV spectrophotometry (Tecan Infinite M200) at 297 nm.

[8] = TEAC ± SD, calculated from EC50 of the acyl derivative and EC50 of (R)-Trolox

Row | EC50 ([5]; EC50 ± SD) | EC50 ([6]; EC50 ± SD) | percutaneous absorption, increase versus phloretin and its α-glucoside ([7]; listed as acyl-glucoside of phloretin) | percutaneous absorption, increase versus phloretin and its α-glucoside ([7]; listed as acylglucoside of phloretin) | Solubility (Aqueous solubility) | Compound | EC50 [1] | ABTS assay TEAC [1] | EC50 [2] | DPPH assay TEAC [2] | skin absorption (in words) [3] | Solubility [4] | DPPH assay TEAC [5, 8] | ABTS assay TEAC [6, 8]
1 |  |  |  |  |  | O=C(CCc1ccc(O)cc1)c1c(O)cc(O[C@H]2O[C@H](CO)[C@@H](O)[C@H](O)[C@H]2O)cc1O [Phloretin 4'-O-α-D-(glucopyranoside), Phloretin 4'-O-α-D-Glucopyranoside] | 16.9 ± 0.5 µM | 0.64 ± 0.06 | 285 ± 20 µM | 8.1 ± 0.6 |  |  |  | 
2 |  |  |  |  |  | O=C(CCc1ccc(O)cc1)c1c(O)cc(O)cc1O [Phloretin, 2',4',6'-trihydroxy-3-(4-hydroxyphenyl)-propiophenone] | 11.7 ± 0.6 µM | 0.45 ± 0.04 | 217 ± 14 µM | 6.2 ± 0.4 | the same absorption pattern, without significant differences | 23.2 ± 0.3* mg/L |  | 
3 | 439 ± 13 µM | 14.7 ± 0.7 µM | approx. 3 fold | 3 fold | 6.0 ± 0.2 µg/mL (≈ 9.7 µM) | CCCCCCCCCCCC(=O)OC[C@H]1O[C@H](Oc2cc(O)c(C(=O)CCc3ccc(O)cc3)c(O)c2)[C@H](O)[C@@H](O)[C@@H]1O [phloretin 4'-O-(6-O-lauroyl)-α-D-glucopyranoside] |  |  |  |  |  |  | 11.4 ± 0.8 | 0.47 ± 0.04
